A short description of data set [1]: Penetration through human skin, flow through cell. Conditions: human skin 200 μm thick, 32° C., acceptor phosphate buffer pH 6.2. Type of data set: in vitro ADME. The protocol:
Different compounds of the invention were tested for their ability to penetrate the human skin (200 μm thick) in the “Flow through cell” at 32° C. according to Tiemessen et al. (Acta Pharm. Technol. 1998; 34:99-101). Phosphate buffer (pH 6.2) was used as the acceptor medium. Samples were drawn at different time points and analysed by RP-HPLC with UV detection (220 nm). Permeation profiles were plotted and mean flux rates of different substances were calculated by linear regression analysis.

Data set [2] deals with guinea-pig ileum. As to the kind of experiment: Anticholinergic activity in guinea-pig ileum (methacholine-induced contractile response). In kind it is cell-based. Conditions: Cavia porcellus; methacholine 0.6 μM, Krebs solution pH 7.4, 32° C. The protocol:
The compounds were tested for their anticholinergic activity in a standard tissue assay, the guinea-pig ileum. A segment of ileum was obtained from Duncan Hartley guinea-pigs which were scarified by cervical dislocation. The tissue was placed under 1 g tension in a 10 ml bath containing Krebs, solution (pH 7.4, 32° C.) and the concentration-dependent ability of different compounds to reduce the methacholine-induced (0.6 μM) contractile response was recorded.

Data set [3] has as its target T1, human muscarinic M3 receptor (Homo sapiens, UniProt P20309).
T1 construct: expressed in transfected cells; host or cells: BSR-M3H cells (membrane preparation)
Kind of data set: [3H]-methylscopolamine binding to recombinant human M3 receptors. Conditions: BSR-M3H cell membranes, 60 minutes at 25° C. The protocol: WO 94/11337 discloses that the active metabolite has high affinity to muscarinic receptors in the guinea-pig bladder. Different compounds of the present invention were tested in a well established standardized assay, measuring the binding of [^3H]-methylscopolamine to recombinant human M3 receptors. BSR-M3H cells transfected with a plasmid encoding the human muscarinic M3 receptor were used to prepare membranes in modified Tris-HCl pH 7.4 buffer using standard techniques. An aliquot of the membrane preparation was incubated with [^3H]-methylscopolamine in the presence or absence of different concentrations of several compounds of the invention for 60 minutes at 25° C. Nonspecific binding was estimated in the presence of 1 μM atropine. Membranes were filtered and washed three times and the filters were counted to determine the amount of [^3H]-methylscopolamine specifically bound.

The test system of data set [4] is urinary bladder over the effect on the salivation. The note with it: preclinical, Nilvebrant et al. 1997; cited from earlier work.
A short description of data set [5]: Incubation of labelled substrates: metabolic degradation to the carboxylic acid. Type of data set: in vitro ADME, human. The note with it: 3 hrs at 37.0° C., 40 μM; compared with unlabelled hydroxy metabolite. The procedure: The metabolic degradation of the unlabelled hydroxy metabolite (i.e. Intermediate D) and the deuteriated hydroxy-metabolite (Intermediate d2B) were compared in vitro. Used were the respective enantiomers and the racemates.
The hydroxy metabolite and the deuteriated hydroxy-metabolite expressed significant differences in the rate to produce the corresponding carboxylic acid.
The measurement was performed with an incubation time of 3 hrs at 37.0° C. in a concentration of 40 μM.

For orientation: IC50 means the midpoint of a concentration-inhibition curve.

T1 sequence (P20309 whole entry): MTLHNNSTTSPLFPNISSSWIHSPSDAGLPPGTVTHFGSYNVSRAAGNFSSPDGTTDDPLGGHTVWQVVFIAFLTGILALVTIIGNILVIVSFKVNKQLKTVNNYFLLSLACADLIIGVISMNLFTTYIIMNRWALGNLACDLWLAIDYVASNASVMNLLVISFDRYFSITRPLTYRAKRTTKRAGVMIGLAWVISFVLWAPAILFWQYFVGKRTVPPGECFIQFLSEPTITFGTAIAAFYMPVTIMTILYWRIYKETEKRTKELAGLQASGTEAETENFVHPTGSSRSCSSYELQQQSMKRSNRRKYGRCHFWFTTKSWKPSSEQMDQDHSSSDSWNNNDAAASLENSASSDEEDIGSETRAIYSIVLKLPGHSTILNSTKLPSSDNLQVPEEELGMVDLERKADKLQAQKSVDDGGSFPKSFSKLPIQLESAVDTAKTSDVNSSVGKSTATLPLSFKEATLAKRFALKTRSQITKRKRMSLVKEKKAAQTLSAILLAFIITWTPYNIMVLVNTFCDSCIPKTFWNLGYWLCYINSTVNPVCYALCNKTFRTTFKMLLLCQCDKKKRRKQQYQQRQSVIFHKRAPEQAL

Regarding `CC(C)N(CCC(c1ccccc1)c1cc(CO)ccc1O)C(C)C` (racemic) [HO-/-OH, (±)-2-(3-Diisopropylamino-1-phenylpropyl)-4-hydroxymethylphenol, reference compound], the Flux rate in data set [1] is reported as 3 μg/cm^2/24 hrs.
In data set [1], `CC(C)C(=O)OCc1ccc(OC(=O)C(C)C)c(C(CCN(C(C)C)C(C)C)c2ccccc2)c1` (racemic) [iButO-/-OiBut, (±)-Isobutyric acid 2-(3-diisopropylamino-1-phenylpropyl)-4-isobutyryloxymethylphenyl ester] displayed a Flux rate of 60 μg/cm^2/24 hrs.
`CC(=O)OCc1ccc(OC(=O)C(C)C)c([C@H](CCN(C(C)C)C(C)C)c2ccccc2)c1` [(+)AcO-/-OiBut, R-(+)-isobutyric acid 4-acetoxymethyl-2-(3-diisopropylamino-1-phenylpropyl)-phenyl ester] had an IC50 in data set [2] of 240 nM.
As to `CC(C)C(=O)Oc1ccc(CO)cc1C(CCN(C(C)C)C(C)C)c1ccccc1` (racemic) [HO-/-OiBut, (±)-Isobutyric acid 2-(3-diisopropylamino-1-phenylpropyl)-4-hydroxymethylphenyl ester], the Flux rate in data set [1] was 150 μg/cm^2/24 hrs.
As for `CC(=O)OCc1ccc(OC(=O)c2ccccc2)c(C(CCN(C(C)C)C(C)C)c2ccccc2)c1` (racemic) [AcO-/-OBz, (±)-Benzoic acid 2-(3-diisopropylamino-1-phenylpropyl)-4-acetoxymethylphenyl ester], the IC50 in data set [3] was 5400 nM.
Turning to `CCN(CC)CC#CCOC(=O)C(O)(c1ccccc1)C1CCCCC1` (centres unmarked) [oxybutynin], the “tissue selectivity in vivo for the urinary bladder over the effect on the salivation” value in data set [4] is recorded as “reversed selectivity”.
In the case of `[2H]C([2H])(O)c1ccc(O)c(C(CCN(C(C)C)C(C)C)c2ccccc2)c1` (racemic) [deuteriated hydroxy-metabolite, (±)-2-(3-Diisopropylamino-1-phenylpropyl)-4-hydroxy-[^2H2]methyl-phenol], the “decreased velocity of formation of the carboxylic acid” value in data set [5] came out at 10%.
`CC(C)N(CC[C@@H](c1ccccc1)c1cc(CO)ccc1O)C(C)C` [(−)HO-/-OH, S-(−)-2-(3-Diisopropylamino-1-phenylpropyl)-4-hydroxymethyl-phenol, reference compound]: the IC50 in data set [3] turned out to be 1300 nM; in data set [2], 680 nM.
On to `CC(=O)OCc1ccc(OC(=O)C(C)C)c(C(CCN(C(C)C)C(C)C)c2ccccc2)c1` (racemic) [AcO-/-OiBut, (±)-Isobutyric acid 4-acetoxymethyl-2-(3-diisopropylamino-1-phenylpropyl)-phenyl ester], for which the IC50 in data set [3] was 3600 nM.
On to `CC(C)N(CCC(c1ccccc1)c1cc(COC(=O)c2ccccc2)ccc1OC(=O)c1ccccc1)C(C)C` (racemic) [BzO-/-OBz, (±)-Benzoic acid 4-benzoyloxymethyl-2-(3-diisopropylamino-1-phenylpropyl)-phenyl ester], for which the IC50 in data set [3] is 2400 nM.
In data set [1], `CCC(=O)OCc1ccc(OC(=O)CC)c(C(CCN(C(C)C)C(C)C)c2ccccc2)c1` (racemic) [PropO-/-OProp, (±)-Propionic acid 2-(3-diisopropylamino-1-phenylpropyl)-4-propionyloxymethylphenyl ester] displayed a Flux rate of 70 μg/cm^2/24 hrs.
`CC(C)N(CC[C@H](c1ccccc1)c1cc(CO)ccc1OC(=O)c1ccccc1)C(C)C` [(+)HO-/-OBz, R-(+)-Benzoic acid 2-(3-diisopropylamino-1-phenylpropyl)-4-hydroxymethylphenyl ester]: the IC50 in data set [3] stood at 172 nM; in data set [2], 180 nM.
With `CC(C)C(=O)Oc1ccc(CO)cc1[C@H](CCN(C(C)C)C(C)C)c1ccccc1` [(+)HO-/-OiBut, R-(+)-Isobutyric acid 2-(3-diisopropylamino-1-phenylpropyl)-4-hydroxymethylphenyl ester], the results for the half-maximal inhibitory concentration (IC50) in data set [3] and in data set [2] were 159 nM and 57 nM, respectively.
`CC(C)N(CC[C@H](c1ccccc1)c1cc(COC(=O)c2ccccc2)ccc1OC(=O)c1ccccc1)C(C)C` [(+)BzO-/-OBz, R-(+)-benzoic acid 4-benzoyloxymethyl-2-(3-diisopropylamino-1-phenylpropyl)-phenyl ester] gave an IC50 in data set [2] of 220 nM.
As to `CC(C)N(CC[C@H](c1ccccc1)c1cc(CO)ccc1O)C(C)C` [(+)HO-/-OH, R-(+)-2-(3-Diisopropylamino-1-phenylpropyl)-4-hydroxymethyl-phenol, reference compound], the IC50 in data set [3] worked out at 8.7 nM; in data set [2], 20 nM.
Consider `Cc1ccc(O)c([C@H](CCN(C(C)C)C(C)C)c2ccccc2)c1` [tolterodine, Tolterodine], for which the “tissue selectivity in vivo for the urinary bladder over the effect on the salivation” value in data set [4] is given as “favourable tissue selectivity”.

The record behind these values is patent publication US7855230B2, “Derivatives of 3,3-diphenylpropylamines” (UCB Pharma GmbH, priority 1999, dated 2010).
